In PMC6992940 (Bone Reports, 2020):

Target: ERα (estrogen receptor alpha) (Homo sapiens, UniProt P03372)
Assay: fluorescence polarization competitor assay
Assay type: binding

ERα (estrogen receptor alpha), sequence (P03372 whole entry): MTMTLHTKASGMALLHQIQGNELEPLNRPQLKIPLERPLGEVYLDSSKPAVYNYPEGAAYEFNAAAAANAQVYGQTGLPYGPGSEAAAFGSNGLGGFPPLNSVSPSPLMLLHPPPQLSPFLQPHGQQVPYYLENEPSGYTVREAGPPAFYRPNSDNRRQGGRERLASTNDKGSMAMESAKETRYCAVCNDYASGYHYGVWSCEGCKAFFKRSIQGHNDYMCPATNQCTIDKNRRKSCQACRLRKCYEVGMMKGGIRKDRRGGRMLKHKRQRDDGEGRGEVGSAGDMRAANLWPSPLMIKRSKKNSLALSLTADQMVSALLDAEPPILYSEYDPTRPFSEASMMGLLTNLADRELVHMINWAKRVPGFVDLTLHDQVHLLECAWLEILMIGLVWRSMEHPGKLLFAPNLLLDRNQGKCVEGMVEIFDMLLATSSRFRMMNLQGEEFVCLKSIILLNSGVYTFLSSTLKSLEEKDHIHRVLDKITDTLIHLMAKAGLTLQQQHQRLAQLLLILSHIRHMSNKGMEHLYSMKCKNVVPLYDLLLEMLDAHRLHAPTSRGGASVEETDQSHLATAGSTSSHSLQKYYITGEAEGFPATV

IC50: 0.183 µM
Compound: COc1ccc2c(C(=O)c3ccc(OCCN4CCCCC4)cc3)c(-c3ccc(O)cc3)sc2c1 [compound 2, (2-(4-hydroxyphenyl)-6-methoxybenzo[b]thiophen-3-yl)(4-(2-(piperidin-1-yl)ethoxy)phenyl)methanone]
